# Where “and” joins values, the source holds several entries; their conditions need not be identical. Equal values may be shown once. Results filed as inconclusive are left out.
# Tested on: BDF1 mice, s.c. Lewis lung carcinoma, T/C %
# Experiment: NCI In Vivo Anticancer Drug Screen. Data for tumor model Lewis Lung Carcinoma (subcutaneous) in B6D2F1 (BDF1) mice
# Method in brief: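 Transplanted tumors grown in mice; compound vs vehicle dosing; endpoint survival or tumor size; ratio T/C.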
# [1] = endpoint: mean tumor weight, dose: 10.0 mg/kg/injection, schedule: Q01DX011 (ip), vehicle: other, higher = larger tumour
# [2] = endpoint: mean tumor weight, dose: 40.0 mg/kg/injection, schedule: Q01DX011 (ip), vehicle: other, higher = larger tumour
# [3] = endpoint: mean tumor weight, dose: 160.0 mg/kg/injection, schedule: Q01DX011 (ip), vehicle: other, higher = larger tumour
# [4] = endpoint: mean tumor weight, dose: 400.0 mg/kg/injection, schedule: Q01DX011 (ip), vehicle: other, higher = larger tumour
# [5] = endpoint: mean tumor weight, dose: 25.0 mg/kg/injection, schedule: Q01DX011 (ip), vehicle: saline, higher = larger tumour
# [6] = endpoint: mean tumor weight, dose: 50.0 mg/kg/injection, schedule: Q01DX011 (ip), vehicle: saline, higher = larger tumour
# [7] = endpoint: mean tumor weight, dose: 100.0 mg/kg/injection, schedule: Q01DX011 (ip), vehicle: carboxymethylcellulose (CMC), higher = larger tumour
# [8] = endpoint: median survival time, dose: 50.0 mg/kg/injection, schedule: Q01DX009 (ip), vehicle: Klucel (hydroxypropylcellulose) (HPC), higher = longer survival
# [9] = endpoint: mean tumor weight, dose: 50.0 mg/kg/injection, schedule: Q01DX011 (ip), vehicle: carboxymethylcellulose (CMC), higher = larger tumour
# [10] = endpoint: mean tumor weight, dose: 200.0 mg/kg/injection, schedule: Q01DX011 (ip), vehicle: carboxymethylcellulose (CMC), higher = larger tumour
smiles,measurement,setting,value
Nc1c(Cl)c(Cl)nc(C(=O)O)c1Cl,T/C,"endpoint: median survival time, dose: 25.0 mg/kg/injection, schedule: Q02DX009 (ip), vehicle: Klucel (hydroxypropylcellulose) (HPC), higher = longer survival",109 % of control
same,T/C,"endpoint: median survival time, dose: 25.0 mg/kg/injection, schedule: Q02DX009 (ip), vehicle: distilled water + Tween-80, higher = longer survival",121 % of control
same,T/C,"endpoint: median survival time, dose: 50.0 mg/kg/injection, schedule: Q02DX009 (ip), vehicle: Klucel (hydroxypropylcellulose) (HPC), higher = longer survival",98 % of control
same,T/C,"endpoint: median survival time, dose: 50.0 mg/kg/injection, schedule: Q02DX009 (ip), vehicle: distilled water + Tween-80, higher = longer survival",104 % of control
same,T/C,"endpoint: median survival time, dose: 100.0 mg/kg/injection, schedule: Q02DX009 (ip), vehicle: Klucel (hydroxypropylcellulose) (HPC), higher = longer survival",91 % of control
same,T/C,"endpoint: median survival time, dose: 100.0 mg/kg/injection, schedule: Q02DX009 (ip), vehicle: distilled water + Tween-80, higher = longer survival",88 % of control
same,T/C,"endpoint: median survival time, dose: 200.0 mg/kg/injection, schedule: Q02DX009 (ip), vehicle: Klucel (hydroxypropylcellulose) (HPC), higher = longer survival",92 % of control
same,T/C,"endpoint: median survival time, dose: 200.0 mg/kg/injection, schedule: Q02DX009 (ip), vehicle: distilled water + Tween-80, higher = longer survival",100 % of control
CC(=N\O)/C(C)=N/O.CC(=N\O)/C(C)=N/O.[Pd],T/C,"endpoint: median survival time, dose: 0.75 mg/kg/injection, schedule: Q01DX009 (ip), vehicle: Klucel (hydroxypropylcellulose) (HPC), higher = longer survival",109 % of control
same,T/C,"endpoint: median survival time, dose: 1.57 mg/kg/injection, schedule: Q01DX009 (ip), vehicle: Klucel (hydroxypropylcellulose) (HPC), higher = longer survival",97 % of control
CCOC(=O)NC,T/C,"endpoint: mean tumor weight, dose: 177.0 mg/kg/injection, schedule: Q01DX011 (ip), vehicle: saline, higher = larger tumour",87 % of control
same,T/C,"endpoint: mean tumor weight, dose: 266.0 mg/kg/injection, schedule: Q01DX011 (ip), vehicle: saline, higher = larger tumour",83 % of control
same,T/C,"endpoint: mean tumor weight, dose: 400.0 mg/kg/injection, schedule: Q01DX011 (ip), vehicle: saline, higher = larger tumour",62 % of control
same,T/C,"endpoint: mean tumor weight, dose: 600.0 mg/kg/injection, schedule: Q01DX011 (ip), vehicle: saline, higher = larger tumour",44 % of control
O=NN(CCF)C(=O)NC1CCSCC1,T/C,"endpoint: median survival time, dose: 2.5 mg/kg/injection, schedule: Q01DX009 (ip), vehicle: saline with Tween-80, higher = longer survival",114 % of control
same,T/C,"endpoint: median survival time, dose: 2.5 mg/kg/injection, schedule: Q01DX009 (ip), vehicle: saline, higher = longer survival",103 % of control
same,T/C,"endpoint: median survival time, dose: 5.0 mg/kg/injection, schedule: Q01DX009 (ip), vehicle: saline with Tween-80, higher = longer survival",191 % of control
same,T/C,"endpoint: median survival time, dose: 5.0 mg/kg/injection, schedule: Q01DX009 (ip), vehicle: saline, higher = longer survival",113 % of control
same,T/C,"endpoint: median survival time, dose: 10.0 mg/kg/injection, schedule: Q01DX009 (ip), vehicle: saline, higher = longer survival",204 % of control
same,T/C,"endpoint: median survival time, dose: 13.0 mg/kg/injection, schedule: Q04DX004 (ip), vehicle: saline with Tween-80, higher = longer survival",279 % of control
same,T/C,"endpoint: median survival time, dose: 18.0 mg/kg/injection, schedule: Q04DX004 (ip), vehicle: saline with Tween-80, higher = longer survival",194 % of control and 345 % of control
same,T/C,"endpoint: median survival time, dose: 20.0 mg/kg/injection, schedule: Q01DX009 (ip), vehicle: saline, higher = longer survival",108 % of control
same,T/C,"endpoint: median survival time, dose: 23.0 mg/kg/injection, schedule: Q04DX004 (ip), vehicle: saline with Tween-80, higher = longer survival",122 % of control
same,T/C,"endpoint: median survival time, dose: 25.0 mg/kg/injection, schedule: Q07DX002 (ip), vehicle: saline with Tween-80, higher = longer survival",190 % of control and 381 % of control
same,T/C,"endpoint: median survival time, dose: 39.0 mg/kg/injection, schedule: Q07DX002 (ip), vehicle: saline with Tween-80, higher = longer survival",198 % of control
same,T/C,"endpoint: median tumor weight (est.), dose: 14.0 mg/kg/injection, schedule: Q01DX001 (ip), vehicle: saline with Tween-80, higher = larger tumour",53 % of control
same,T/C,"endpoint: median tumor weight (est.), dose: 27.0 mg/kg/injection, schedule: Q01DX001 (ip), vehicle: saline with Tween-80, higher = larger tumour",8 % of control
CCN(CC)CC(C)Nc1ccc(C)c2sc3ccccc3c(=O)c12 (centres undefined),T/C,[1],104 % of control
same,T/C,[2],68 % of control
same,T/C,[3],30 % of control
O=S(=O)(O)O.[NH-]CC1(C[NH-])CCCCC1.[Pt+2],T/C,"endpoint: median survival time, dose: 6.0 mg/kg/injection, schedule: Q04DX003 (ip), vehicle: other, higher = longer survival",100 % of control
COc1cc(-c2cc(=O)c3c(OC)c(OC)c(OC)c(OC)c3o2)cc(OC)c1OC,T/C,"endpoint: mean tumor weight, dose: 50.0 mg/kg/injection, schedule: Q01DX010 (sc), vehicle: steriod suspending solution, higher = larger tumour",87 % of control
same,T/C,"endpoint: mean tumor weight, dose: 100.0 mg/kg/injection, schedule: Q01DX010 (sc), vehicle: steriod suspending solution, higher = larger tumour",102 % of control
same,T/C,"endpoint: mean tumor weight, dose: 200.0 mg/kg/injection, schedule: Q01DX010 (sc), vehicle: steriod suspending solution, higher = larger tumour",97 % of control
CCC[CH2][Sn]1([CH2]CCC)[N](S(=O)(=O)c2ccc(C)cc2)c2ccccc2[N]1S(=O)(=O)c1ccc(C)cc1,T/C,"endpoint: median survival time, dose: 1.5 mg/kg/injection, schedule: Q01DX009 (ip), vehicle: Klucel (hydroxypropylcellulose) (HPC), higher = longer survival",111 % of control
same,T/C,"endpoint: median survival time, dose: 3.0 mg/kg/injection, schedule: Q01DX009 (ip), vehicle: Klucel (hydroxypropylcellulose) (HPC), higher = longer survival",90 % of control
same,T/C,"endpoint: median survival time, dose: 6.0 mg/kg/injection, schedule: Q01DX009 (ip), vehicle: Klucel (hydroxypropylcellulose) (HPC), higher = longer survival",101 % of control
c1ccc2c3c(ccc2c1)Sc1ccc2ccccc2c1N3,T/C,[4],78 % of control
same,T/C,"endpoint: mean tumor weight, dose: 600.0 mg/kg/injection, schedule: Q01DX011 (ip), vehicle: other, higher = larger tumour",57 % of control
same,T/C,"endpoint: mean tumor weight, dose: 800.0 mg/kg/injection, schedule: Q01DX011 (ip), vehicle: other, higher = larger tumour",57 % of control
O=C(CP(=O)(O)O)NC(CC(=O)OCc1ccccc1)C(=O)OCc1ccccc1 (centres undefined),T/C,"endpoint: median survival time, dose: 50.0 mg/kg/injection, schedule: Q01DX004 (ip), vehicle: saline, higher = longer survival",114 % of control and 120 % of control
same,T/C,"endpoint: median survival time, dose: 100.0 mg/kg/injection, schedule: Q01DX004 (ip), vehicle: saline, higher = longer survival",120 % of control and 118 % of control
same,T/C,"endpoint: median survival time, dose: 200.0 mg/kg/injection, schedule: Q01DX004 (ip), vehicle: saline, higher = longer survival",109 % of control
same,T/C,"endpoint: median survival time, dose: 400.0 mg/kg/injection, schedule: Q01DX004 (ip), vehicle: saline, higher = longer survival",109 % of control
same,T/C,"endpoint: median survival time, dose: 800.0 mg/kg/injection, schedule: Q01DX004 (ip), vehicle: saline, higher = longer survival",116 % of control
CC(C)=CCC/C(C)=C\CC/C(C)=C/CO,T/C,"endpoint: mean tumor weight, dose: 6.25 mg/kg/injection, schedule: Q01DX011 (ip), vehicle: saline, higher = larger tumour",85 % of control
same,T/C,"endpoint: mean tumor weight, dose: 12.5 mg/kg/injection, schedule: Q01DX011 (ip), vehicle: saline, higher = larger tumour",50 % of control
same,T/C,[5],67 % of control
same,T/C,[6],95 % of control
CC(C)=CCCC(C)CCO (centres undefined),T/C,[7],72 % of control
COc1cc2c(cc1Oc1c(Oc3c(O)c(OC)cc4c3C(CC(C)C)N(C)CC4)c(OC)cc3c1C(CC(C)C)N(C)CC3)C(CC(C)C)N(C)CC2 (centres undefined),T/C,"endpoint: median survival time, dose: 12.5 mg/kg/injection, schedule: Q01DX009 (ip), vehicle: Klucel (hydroxypropylcellulose) (HPC), higher = longer survival",92 % of control
same,T/C,"endpoint: median survival time, dose: 25.0 mg/kg/injection, schedule: Q01DX009 (ip), vehicle: Klucel (hydroxypropylcellulose) (HPC), higher = longer survival",98 % of control
same,T/C,[8],88 % of control
Oc1ccc2ccccc2c1N=Nc1ccccc1,T/C,"endpoint: mean tumor weight, dose: 25.0 mg/kg/injection, schedule: Q01DX011 (ip), vehicle: carboxymethylcellulose (CMC), higher = larger tumour",78 % of control
same,T/C,[9],75 % of control
same,T/C,[7],84 % of control
same,T/C,[10],43 % of control
O=c1[nH]c(=O)n(C2CC(O)C(CO)O2)cc1Br (centres undefined),T/C,[9],67 % of control
same,T/C,[7],88 % of control
same,T/C,[10],41 % of control
same,T/C,"endpoint: mean tumor weight, dose: 400.0 mg/kg/injection, schedule: Q01DX011 (ip), vehicle: carboxymethylcellulose (CMC), higher = larger tumour",53 % of control
NC(CSC(c1ccccc1)(c1ccccc1)c1ccccc1)C(=O)O (centres undefined),T/C,"endpoint: mean tumor weight, dose: 12.0 mg/kg/injection, schedule: Q01DX011 (ip), vehicle: methylcellulose (MC), higher = larger tumour",115 % of control
same,T/C,"endpoint: median survival time, dose: 8.0 mg/kg/injection, schedule: Q01DX009 (ip), vehicle: Klucel (hydroxypropylcellulose) (HPC), higher = longer survival",120 % of control
same,T/C,"endpoint: median survival time, dose: 32.0 mg/kg/injection, schedule: Q01DX009 (ip), vehicle: Klucel (hydroxypropylcellulose) (HPC), higher = longer survival",112 % of control
Nc1nc(N)c(N=O)c(Nc2ccc(Br)cc2)n1,T/C,[1],76 % of control
same,T/C,"endpoint: mean tumor weight, dose: 20.0 mg/kg/injection, schedule: Q01DX011 (ip), vehicle: other, higher = larger tumour",114 % of control
same,T/C,[2],70 % of control
same,T/C,"endpoint: mean tumor weight, dose: 80.0 mg/kg/injection, schedule: Q01DX011 (ip), vehicle: other, higher = larger tumour",44 % of control and 45 % of control
same,T/C,[3],47 % of control
same,T/C,"endpoint: mean tumor weight, dose: 320.0 mg/kg/injection, schedule: Q01DX011 (ip), vehicle: other, higher = larger tumour",62 % of control
C/C(=N\N=C(/C)c1ccc(-c2ccccc2)cc1)c1ccc(-c2ccccc2)cc1,T/C,[5],84 % of control
same,T/C,[6],85 % of control
same,T/C,"endpoint: mean tumor weight, dose: 100.0 mg/kg/injection, schedule: Q01DX011 (ip), vehicle: saline, higher = larger tumour",76 % of control
same,T/C,"endpoint: mean tumor weight, dose: 200.0 mg/kg/injection, schedule: Q01DX011 (ip), vehicle: saline, higher = larger tumour",46 % of control
CC(=O)Nc1ccc(Cl)c(Cl)c1,T/C,[8],120 % of control and 124 % of control
same,T/C,"endpoint: median survival time, dose: 100.0 mg/kg/injection, schedule: Q01DX009 (ip), vehicle: Klucel (hydroxypropylcellulose) (HPC), higher = longer survival",106 % of control
same,T/C,"endpoint: median survival time, dose: 200.0 mg/kg/injection, schedule: Q01DX009 (ip), vehicle: Klucel (hydroxypropylcellulose) (HPC), higher = longer survival",98 % of control
Fc1ccc(CSc2ncnc3c2ncn3C2CCCCO2)cc1 (centres undefined),T/C,"endpoint: mean tumor weight, dose: 200.0 mg/kg/injection, schedule: Q01DX011 (ip), vehicle: other, higher = larger tumour",73 % of control
same,T/C,[4],33 % of control
